Reference: the NIST ThermoML archive (doi:10.1021/acs.jced.8b00537)

Test: xn = mol fraction of the nth substance listed
Settings: 100 kPa, Liquid, x2 = 0; for viscosity: Capillary tube (Ostwald / Ubbelohde) method; for speed of sound: Frequency=3 MHz, Single path-length method; for mass density: Vibrating tube method

CCCO [propan-1-ol] + C=CCn1cc[n+](C)c1.O=S(=O)([N-]S(=O)(=O)C(F)(F)F)C(F)(F)F
Settings | mass density [kg/m3] | speed of sound [m/s] | viscosity [mPa·s]
293.15 K | 804 | 1223.8 | 2.14
298.15 K | – | 1206.5 | –
303.15 K | 796 | 1189.4 | 1.688
308.15 K | 792 | 1172.4 | 1.506
313.15 K | 787 | 1155.5 | 1.348
318.15 K | 783 | 1138.7 | 1.211
323.15 K | 779 | 1121.9 | 1.09
328.15 K | 775 | 1105.2 | 0.985
333.15 K | 770 | 1088.3 | 0.892
338.15 K | 766 | 1071.5 | 0.81
343.15 K | 762 | 1054.5 | 0.737

CCCO [propan-1-ol] + CC[S+](CC)CC.O=S(=O)([N-]S(=O)(=O)C(F)(F)F)C(F)(F)F
Settings | mass density [kg/m3] | speed of sound [m/s] | viscosity [mPa·s]
293.15 K | 804 | 1223.8 | 2.14
298.15 K | 800 | 1206.5 | 1.897
303.15 K | 796 | 1189.4 | 1.688
308.15 K | 792 | 1172.4 | 1.506
313.15 K | 787 | 1155.5 | 1.348
318.15 K | 783 | 1138.7 | 1.211
323.15 K | 779 | 1121.9 | 1.09
328.15 K | 775 | 1105.2 | 0.985
333.15 K | 770 | 1088.3 | 0.892
338.15 K | 766 | 1071.5 | 0.81
343.15 K | 762 | 1054.5 | 0.737
